{
  "source": "paper PMC12892976",
  "about": "“Alkylation-based optimization of antifungal FPPS inhibitors yields a potent, broad-spectrum lipophilic zoledronate derivative” (mBio, 2025)",
  "key": {"Candida albicans [1]": {"system": "Candida albicans", "assay": "checkerboard drug interaction (FICI, MICc)", "type": "cell-based", "settings": "for INH MICc: C. albicans", "method": "(§1) Drug interactions between antifungals and FPPS inhibitors were investigated using a simplified checkerboard diagonal screening method ([45]). […] FICIs were determined according to the Loewe additivity model ([17])."}, "eight fungal species": {"system": "eight fungal species", "assay": "MIC/MFC summary across the eight fungal species of Table 1", "type": "cell-based", "description": "The antifungal activity of these compounds was evaluated according to CLSI guidelines ([16])."}, "[2]": {"system": "Cryptococcus deuterogattii", "assay": "MIC/MFC broth microdilution (CLSI)", "method": "(§2) Antifungal susceptibility was determined by broth microdilution according to the CLSI guidelines described in M27-Ed4 ([16]). […] MFC was determined by back-plating drug-treated cultures from MIC broths onto SDA plates. The MFC was defined as the lowest concentration from which no colonies could be cultured."}, "Aspergillus fumigatus [3]": {"system": "Aspergillus fumigatus", "assay": "MIC/MFC broth microdilution (CLSI)", "settings": "ATCC204305", "method": "as §2"}, "Aspergillus fumigatus [4]": {"system": "Aspergillus fumigatus", "assay": "checkerboard drug interaction (FICI, MICc)", "type": "cell-based", "method": "as §1"}, "Saccharomyces cerevisiae": {"system": "Saccharomyces cerevisiae", "assay": "checkerboard drug interaction (FICI, MICc)", "type": "cell-based", "set-up": "INH MICc / INH MICc (ITR:INH) / INH MICc (KET:INH) / INH MICc (FLC:INH): unit not given beside the values"}, "Candida albicans [5]": {"system": "Candida albicans", "assay": "MIC/MFC broth microdilution (CLSI)", "type": "cell-based", "settings": "Candida albicans SC5314", "method": "as §2"}, "Trichophyton rubrum": {"system": "Trichophyton rubrum", "assay": "MIC/MFC broth microdilution (CLSI)", "method": "as §2"}, "Fusarium oxysporum": {"system": "Fusarium oxysporum", "assay": "MIC broth microdilution (CLSI)", "type": "cell-based", "settings": "Fusarium oxysporum 07-200-3012", "method": "Antifungal susceptibility was determined by broth microdilution according to the CLSI guidelines described in M27-Ed4 ([16])."}, "Candida glabrata": {"system": "Candida glabrata", "assay": "MIC/MFC broth microdilution (CLSI)", "method": "as §2"}, "Cryptococcus neoformans": {"system": "Cryptococcus neoformans", "assay": "checkerboard drug interaction (FICI, MICc)", "type": "cell-based", "settings": "for INH MICc: C. neoformans", "method": "as §1"}, "[6]": {"settings": "FLC:INH combination, MIC of the inhibitor in combination with FLC"}, "[7]": {"settings": "ITR:INH combination, MIC of the inhibitor in combination with ITR"}, "[8]": {"settings": "KET:INH combination, MIC of the inhibitor in combination with KET"}},
  "note": "Where two headings read alike, the source gives them in different places.",
  "data": [
    {"smiles": "CCCCCCCCCCn1cc[n+](CC(O)(P(=O)(O)O)P(=O)(O)O)c1", "note": "[10-ZOL, Decyl-zoledronate]", "values": [
      {"measurement": "INH MICc", "setting": "Candida albicans [1]; [6]", "value": 0.0625},
      {"measurement": "INH MICc", "setting": "Candida albicans [1]; [7]", "value": 0.25},
      {"measurement": "INH MICc", "setting": "Candida albicans [1]; [8]", "value": 0.125},
      {"measurement": "bisphosphonate MICc", "setting": "Candida albicans [1]; with 5FC", "value": 0.5},
      {"measurement": "bisphosphonate MICc", "setting": "Candida albicans [1]; with AMB", "value": 0.25},
      {"measurement": "bisphosphonate MICc", "setting": "Candida albicans [1]; with CAS", "value": 1},
      {"measurement": "bisphosphonate MICc", "setting": "Candida albicans [1]; with FLC", "value": 0.0625},
      {"measurement": "bisphosphonate MICc", "setting": "Candida albicans [1]; with ITR", "value": 0.25},
      {"measurement": "bisphosphonate MICc", "setting": "Candida albicans [1]; with KET", "value": 0.125},
      {"measurement": "bisphosphonate MICc", "setting": "Candida albicans [1]; with VOR", "value": 0.25},
      {"measurement": "Geometric mean MFC", "setting": "eight fungal species; across eight species", "value": 4.8, "unit": "µg/mL"},
      {"measurement": "Geometric mean MIC", "setting": "eight fungal species; across eight species", "value": 1.2, "unit": "µg/mL"},
      {"measurement": "MFC", "setting": "eight fungal species; across eight species, read-out: Geometric mean MFC", "value": 4.8, "unit": "µg/mL"},
      {"measurement": "range of MICs across the tested fungal species", "setting": "eight fungal species; eight species", "value": "0.5 to 4", "unit": "µg/mL"},
      {"measurement": "MIC", "setting": "eight fungal species; geometric mean across eight species, read-out: GM fungal MIC", "value": 1.2, "unit": "µg/mL"},
      {"measurement": "MIC", "setting": "eight fungal species; read-out: Geometric mean MIC", "value": 1.2, "unit": "µg/mL"},
      {"measurement": "MFC", "setting": "[2]; Cryptococcus deuterogattii", "value": 2, "unit": "µg/mL"},
      {"measurement": "MIC", "setting": "[2]; Cryptococcus deuterogattii", "value": 1, "unit": "µg/mL"},
      {"measurement": "MIC / MEC", "setting": "[2]; Cryptococcus deuterogattii R265", "value": 1, "unit": "µg/mL"},
      {"measurement": "MFC", "setting": "Aspergillus fumigatus [3]", "value": 2, "unit": "µg/mL"},
      {"measurement": "MIC", "setting": "Aspergillus fumigatus [3]", "value": 1, "unit": "µg/mL"},
      {"measurement": "MIC / MEC", "setting": "Aspergillus fumigatus [3]", "value": 1, "unit": "µg/mL"},
      {"measurement": "FICI", "setting": "Aspergillus fumigatus [4]; 5FC:10-ZOL", "value": 3},
      {"measurement": "FLC MICc", "setting": "Aspergillus fumigatus [4]; A. fumigatus, FLC:INH combination, MIC of FLC in combination with the inhibitor", "value": 8},
      {"measurement": "INH MICc", "setting": "Aspergillus fumigatus [4]; A. fumigatus, FLC:INH combination, MIC of the inhibitor in combination with FLC", "value": 0.5},
      {"measurement": "ITR MICc", "setting": "Aspergillus fumigatus [4]; A. fumigatus, ITR:INH combination, MIC of ITR in combination with the inhibitor", "value": 0.063},
      {"measurement": "INH MICc", "setting": "Aspergillus fumigatus [4]; A. fumigatus, ITR:INH combination, MIC of the inhibitor in combination with ITR", "value": 0.063},
      {"measurement": "KET MICc", "setting": "Aspergillus fumigatus [4]; A. fumigatus, KET:INH combination, MIC of KET in combination with the inhibitor", "value": 0.25},
      {"measurement": "INH MICc", "setting": "Aspergillus fumigatus [4]; A. fumigatus, KET:INH combination, MIC of the inhibitor in combination with KET", "value": 0.25},
      {"measurement": "FICI", "setting": "Aspergillus fumigatus [4]; CAS:10-ZOL", "value": 1.5},
      {"measurement": "bisphosphonate MICc", "setting": "Aspergillus fumigatus [4]; with 5FC", "value": 1},
      {"measurement": "bisphosphonate MICc", "setting": "Aspergillus fumigatus [4]; with AMB", "value": 0.25},
      {"measurement": "bisphosphonate MICc", "setting": "Aspergillus fumigatus [4]; with CAS", "value": 1},
      {"measurement": "bisphosphonate MICc", "setting": "Aspergillus fumigatus [4]; with FLC", "value": 0.5},
      {"measurement": "bisphosphonate MICc", "setting": "Aspergillus fumigatus [4]; with ITR", "value": 0.063},
      {"measurement": "bisphosphonate MICc", "setting": "Aspergillus fumigatus [4]; with KET", "value": 0.25},
      {"measurement": "bisphosphonate MICc", "setting": "Aspergillus fumigatus [4]; with VOR", "value": 0.25},
      {"measurement": "FICI", "setting": "Saccharomyces cerevisiae; 5FC:10-ZOL", "value": 2},
      {"measurement": "FICI", "setting": "Saccharomyces cerevisiae; ITR:10-ZOL", "value": 1},
      {"measurement": "FLC MICc", "setting": "Saccharomyces cerevisiae; S. cerevisiae, FLC:INH combination, MIC of FLC in combination with the inhibitor", "value": 1},
      {"measurement": "INH MICc", "setting": "Saccharomyces cerevisiae; S. cerevisiae, FLC:INH combination, MIC of the inhibitor in combination with FLC", "value": 0.5},
      {"measurement": "FICI", "setting": "Saccharomyces cerevisiae; S. cerevisiae, ITR:INH combination", "value": 1},
      {"measurement": "ITR MICc", "setting": "Saccharomyces cerevisiae; S. cerevisiae, ITR:INH combination, MIC of ITR in combination with the inhibitor", "value": 0.125},
      {"measurement": "INH MICc", "setting": "Saccharomyces cerevisiae; S. cerevisiae, ITR:INH combination, MIC of the inhibitor in combination with ITR", "value": 0.5},
      {"measurement": "KET MICc", "setting": "Saccharomyces cerevisiae; S. cerevisiae, KET:INH combination, MIC of KET in combination with the inhibitor", "value": 0.25},
      {"measurement": "INH MICc", "setting": "Saccharomyces cerevisiae; S. cerevisiae, KET:INH combination, MIC of the inhibitor in combination with KET", "value": 0.25},
      {"measurement": "bisphosphonate MICc", "setting": "Saccharomyces cerevisiae; with 5FC", "value": 1},
      {"measurement": "bisphosphonate MICc", "setting": "Saccharomyces cerevisiae; with AMB", "value": 0.25},
      {"measurement": "bisphosphonate MICc", "setting": "Saccharomyces cerevisiae; with CAS", "value": 0.063},
      {"measurement": "bisphosphonate MICc", "setting": "Saccharomyces cerevisiae; with FLC", "value": 0.5},
      {"measurement": "bisphosphonate MICc", "setting": "Saccharomyces cerevisiae; with ITR", "value": 0.5},
      {"measurement": "FICI", "setting": "Saccharomyces cerevisiae; with ITR, Saccharomyces cerevisiae", "value": 1.00},
      {"measurement": "bisphosphonate MICc", "setting": "Saccharomyces cerevisiae; with KET", "value": 0.25},
      {"measurement": "bisphosphonate MICc", "setting": "Saccharomyces cerevisiae; with VOR", "value": 0.25},
      {"measurement": "MFC", "setting": "Candida albicans [5]", "value": 16, "unit": "µg/mL"},
      {"measurement": "MIC", "setting": "Candida albicans [5]", "value": 4, "unit": "µg/mL"},
      {"measurement": "MIC / MEC", "setting": "Candida albicans [5]", "value": 4, "unit": "µg/mL"},
      {"measurement": "MFC", "setting": "Trichophyton rubrum; Trichophyton rubrum", "value": 64, "unit": "µg/mL"},
      {"measurement": "MIC", "setting": "Trichophyton rubrum; Trichophyton rubrum", "value": 1, "unit": "µg/mL"},
      {"measurement": "MIC / MEC", "setting": "Trichophyton rubrum; Trichophyton rubrum R-218", "value": 2, "unit": "µg/mL"},
      {"measurement": "MIC / MEC", "setting": "Fusarium oxysporum", "value": 8, "unit": "µg/mL"},
      {"measurement": "MIC / MEC", "setting": "Candida glabrata; Candida glabrata CBS138 (ATCC 2001)", "value": 0.5, "unit": "µg/mL"},
      {"measurement": "MFC", "setting": "Candida glabrata; Nakaseomyces glabratus, CBS138", "value": 1, "unit": "µg/mL"},
      {"measurement": "MIC", "setting": "Candida glabrata; Nakaseomyces glabratus, CBS138", "value": 0.5, "unit": "µg/mL"},
      {"measurement": "INH MICc", "setting": "Cryptococcus neoformans; [6]", "value": 0.125},
      {"measurement": "INH MICc", "setting": "Cryptococcus neoformans; [7]", "value": 0.063},
      {"measurement": "INH MICc", "setting": "Cryptococcus neoformans; [8]", "value": 0.063},
      {"measurement": "bisphosphonate MICc", "setting": "Cryptococcus neoformans; with 5FC", "value": 0.5},
      {"measurement": "bisphosphonate MICc", "setting": "Cryptococcus neoformans; with AMB", "value": 0.25},
      {"measurement": "bisphosphonate MICc", "setting": "Cryptococcus neoformans; with CAS", "value": 0.5},
      {"measurement": "bisphosphonate MICc", "setting": "Cryptococcus neoformans; with FLC", "value": 0.125}
    ]}
  ]
}
